PubChem BioAssay AID1189 (EPA DSSTox, 2008)
Calls of active or inactive are those of the source.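 How the source made its calls: active means a tumor-causing dose value with its tumor site reported for any sex and species group of a rodent or other animal cancer study; inconclusive means only studies judged inadequate by the national testing program; inactive means tested in at least one study, none positive.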

Assay: DSSTox (CPDBAS) Carcinogenic Potency Database Summary SingleCellCall Results
Conditions: animal chronic carcinogenicity bioassays, CPDB summary call
Outline: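 Literature-derived summary: each substance receives an overall carcinogenic/non-carcinogenic category drawn from long-term bioassays in rats, mice, hamsters, dogs or primates, using the most positive sex-species experiment and minimal evidence criteria.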

Structure (SMILES) | outcome
CC(C)COC(=O)c1ccc(O)cc1 | inactive
ClC(Cl)(Cl)c1ccccc1 | active; inactive
CCN(C)N=O | active
S=[Se] | active
O=CNNc1nc(-c2ccc([N+](=O)[O-])o2)cs1 | active
O=C(O)c1cccnc1 | inactive
Cn1nc(CO)nc1NCCCOc1cccc(CN2CCCCC2)c1 | active
COC(=O)[C@H]1[C@H]2C[C@@H]3c4[nH]c5ccccc5c4CCN3C[C@H]2C[C@@H](OC(=O)c2cc(OC)c(OC)c(OC)c2)[C@@H]1OC | inactive
CCOC(=O)[C@]1(c2ccccc2)CCC=C[C@H]1N(C)C | inactive
Nc1ncn[nH]1 | active; inactive
O=CC1CO1 (centres undefined) | inactive
CC(Cc1ccccc1)NN (centres undefined) | inactive
CC(C)[N+](=O)[O-] | inactive; active
O=[N+]([O-])OCC(CO[N+](=O)[O-])O[N+](=O)[O-] | active
C[C@@H]1C[C@H]2[C@@H]3CCC4=CC(=O)C=C[C@]4(C)[C@@]3(F)[C@@H](O)C[C@]2(C)[C@@]1(O)C(=O)CO | inactive
CC(C)(OCc1ccc(-c2ccc(Cl)cc2)cc1)C(=O)O | active
CN(CC(O)CO)N=O (centres undefined) | active
CCCCNC(=O)N(CCCC)N=O | active
COC(=O)NN | inactive; active
Nc1nnc(-c2ccc([N+](=O)[O-])o2)o1 | active
CCOC(=O)CC(SP(=O)(OC)OC)C(=O)OCC (centres undefined) | inactive
NC(=O)N/N=C/c1ccco1 | inactive

Structure (SMILES) | outcome
CC[C@H](OC(C)=O)C(C[C@H](C)N(C)C)(c1ccccc1)c1ccccc1 | active
NS(=O)(=O)c1cc2c(cc1Cl)NCNS2(=O)=O | inactive; active
COC(C)(C)C | active
OC[C@@H](O)[C@@H](O)[C@H](O)[C@H](O)CO[C@H]1O[C@H](CO)[C@@H](O)[C@H](O)[C@H]1O | inactive
CNCCC(Oc1ccc(C(F)(F)F)cc1)c1ccccc1 (centres undefined) | inactive; active
CCNc1nc(Cl)nc(NC(C)C)n1 | active
O=C1O[C@H]([C@@H](O)CO)C(O)=C1O | inactive
CCCCCN(CCCCC)N=O | active; inactive
CC1(C)O[C@@H]2C[C@H]3[C@@H]4CCC5=CC(=O)C=C[C@]5(C)[C@@]4(F)[C@@H](O)C[C@]3(C)[C@]2(C(=O)CO)O1 | active
CN(N=O)c1ccc(N=O)cc1 | active
CN=C(N)N | inactive; active
Cc1cc(Cc2cc(C)cc(C(C)(C)C)c2O)c(O)c(C(C)(C)C)c1 | inactive; active
Oc1cccc(O)c1 | inactive
C#C[C@@]1(O)CC[C@H]2[C@@H]3CCC4=CCCC[C@@H]4[C@H]3CC[C@@]21C | active
Cc1ccc(O)c(C(C)(C)C)c1 | inactive
CC1CN(/N=C/c2ccc([N+](=O)[O-])o2)C(=O)N1 (centres undefined) | active
O=NN1CCN(N=O)CC1 | active; inactive
[K+] | active; inactive
C#CC(OC(N)=O)(c1ccccc1)c1ccc(Cl)cc1 (centres undefined) | active; inactive
Cc1ccc(C)c(N)c1 | active
[Cl-].[Hg+] | inactive; active
O=[As]O | inactive

Structure (SMILES) | outcome
Cc1cccc(Nc2cc(Cl)nc(SCC(=O)O)n2)c1C | active; inactive
CNNCc1ccc(C(=O)NC(C)C)cc1 | active
CC1CO1 (centres undefined) | active
O=NN1CCC1 | active
CC1(C)S[C@@H]2[C@H](NC(=O)COc3ccccc3)C(=O)N2[C@H]1C(=O)O | inactive
CC(=O)O[C@]1(C(C)=O)CC[C@H]2[C@@H]3C=C(Cl)C4=CC(=O)[C@@H]5C[C@@H]5[C@]4(C)[C@H]3CC[C@@]21C | active; inactive
[O]=[Nb](=[O])[OH] | inactive
S=c1[nH]c2ccccc2s1 | active
CCC(CC)[N+](=O)[O-] | active
COC(=O)[C@H]1[C@H]2C[C@@H]3c4[nH]c5cc(OC)ccc5c4CCN3C[C@H]2C[C@@H](OC(=O)c2cc(OC)c(OC)c(OC)c2)[C@@H]1OC | active
CC(Oc1ccc(Cl)cc1Cl)C(=O)O (centres undefined) | inactive
COc1cc(S(C)=O)ccc1-c1nc2ccncc2[nH]1 (centres undefined) | active
OCCO | inactive
O=c1ccc(=O)[nH][nH]1 | inactive; active
FC(Cl)(Cl)Cl | inactive; active
Clc1nc(Cl)nc(Nc2ccccc2Cl)n1 | inactive
CC1=CC(C)(C)N(N=O)c2ccccc21 | active
Nc1ccc(/C=C/c2ccc(N)cc2S(=O)(=O)O)c(S(=O)(=O)O)c1 | inactive; active
CC(C)(Oc1ccc(C2CCCc3ccccc32)cc1)C(=O)O (centres undefined) | active; inactive
S=C=NCCc1ccccc1 | inactive; active
